# Test results reported in ChEMBL document CHEMBL1201862, “PubChem BioAssay data set” (2004).
# Activity calls are given as the source filed them.
# Key:
# [1] = system: A-375; experiment: MITF: Counter assay: A375 proliferation Measured in Cell-Based System Using Plate Reader - 2084-03_Inhibitor_Dose_DryPowder_Activity. [Related pubchem assays (depositor defined):AID488944]; format: functional; settings: Homo sapiens
# [2] = HEK-293T viability loss after treatment – luminescence, T-cell screen hits, cytotoxicity control for TCR NF-kB inhibitor project, dose response (AID 489026); format: functional, cell-based;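 further: cells exposed to compound about 14 hours before the viability readout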
# [3] = target: T1, Heat shock factor protein 1 (Mus musculus, UniProt P38532); experiment: enhancement of HSF1-driven luciferase signal – cell-based, NIH3T3, luminescence, dose retest, confirmation (AID 435004); format: functional;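 further: stress induced by proteasome inhibitor MG132 added 30 min after compound; luciferase reporter driven by HSF1 response element in NIH3T3 cells; actives raise luminescence as potentiators of the MG132 stress response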
# T1 sequence (P38532 whole entry): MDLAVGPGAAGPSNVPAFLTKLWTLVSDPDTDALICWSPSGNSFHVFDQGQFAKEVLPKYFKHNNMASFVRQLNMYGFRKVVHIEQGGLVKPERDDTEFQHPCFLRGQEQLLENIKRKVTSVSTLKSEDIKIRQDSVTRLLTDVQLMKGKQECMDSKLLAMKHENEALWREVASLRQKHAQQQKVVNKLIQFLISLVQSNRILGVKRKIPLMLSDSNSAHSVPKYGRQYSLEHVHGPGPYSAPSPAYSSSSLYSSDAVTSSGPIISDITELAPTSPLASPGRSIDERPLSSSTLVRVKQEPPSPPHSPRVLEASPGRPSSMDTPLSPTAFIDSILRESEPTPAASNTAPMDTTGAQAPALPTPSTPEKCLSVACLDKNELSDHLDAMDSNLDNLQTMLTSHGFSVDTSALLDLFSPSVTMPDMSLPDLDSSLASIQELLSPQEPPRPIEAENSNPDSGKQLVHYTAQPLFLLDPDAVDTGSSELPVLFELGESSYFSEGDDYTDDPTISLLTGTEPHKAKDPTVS
# [4] = reduction of Shn3 3'UTR-driven luciferase in osteoblasts – cell-based, Clone20 osteoblasts, firefly luciferase, cherry-picked, dose response (AID 624132); format: functional;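 further: firefly luciferase luminescence from reporter carrying the Shn3 3'UTR in osteoblasts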
# [5] = target: E3 ubiquitin-protein ligase Mdm2 (Homo sapiens, UniProt Q00987); experiment: MDM2-luc reporter signal enhancers, multi-concentration potency testing, MDM2 ubiquitin-protein ligase inhibitor program, whole-cell format, luminescence detection, 384-well microplate (AID 1394); format: functional;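 further: MDM2 E3 inhibitors raise luminescence so EC50 is for signal enhancement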
# E3 ubiquitin-protein ligase Mdm2, sequence (Q00987 whole entry): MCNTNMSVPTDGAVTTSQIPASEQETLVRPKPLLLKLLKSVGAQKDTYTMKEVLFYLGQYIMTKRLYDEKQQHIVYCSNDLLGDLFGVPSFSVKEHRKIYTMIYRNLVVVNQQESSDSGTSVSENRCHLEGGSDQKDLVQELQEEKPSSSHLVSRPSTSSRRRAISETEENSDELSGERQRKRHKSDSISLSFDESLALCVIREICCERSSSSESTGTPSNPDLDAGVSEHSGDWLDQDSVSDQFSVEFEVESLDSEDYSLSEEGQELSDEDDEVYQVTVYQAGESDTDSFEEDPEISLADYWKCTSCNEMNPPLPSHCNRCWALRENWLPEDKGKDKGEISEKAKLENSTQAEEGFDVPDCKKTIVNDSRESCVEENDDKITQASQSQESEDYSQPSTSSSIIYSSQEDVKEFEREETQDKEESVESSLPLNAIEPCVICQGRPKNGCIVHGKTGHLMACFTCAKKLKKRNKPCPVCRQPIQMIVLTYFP
# [6] = target: T2, Microphthalmia-associated transcription factor (Homo sapiens, UniProt O75030); experiment: reducers of TRPM1 reporter luminescence, concentration series – cell-based, SK-MEL-5, cherry-picked, set 3, MITF inhibitor project, dose response (AID 493073); format: functional;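 further: SK-MEL-5 melanoma cells with luciferase driven by the MITF target TRPM1 promoter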
# T2 sequence (O75030 whole entry): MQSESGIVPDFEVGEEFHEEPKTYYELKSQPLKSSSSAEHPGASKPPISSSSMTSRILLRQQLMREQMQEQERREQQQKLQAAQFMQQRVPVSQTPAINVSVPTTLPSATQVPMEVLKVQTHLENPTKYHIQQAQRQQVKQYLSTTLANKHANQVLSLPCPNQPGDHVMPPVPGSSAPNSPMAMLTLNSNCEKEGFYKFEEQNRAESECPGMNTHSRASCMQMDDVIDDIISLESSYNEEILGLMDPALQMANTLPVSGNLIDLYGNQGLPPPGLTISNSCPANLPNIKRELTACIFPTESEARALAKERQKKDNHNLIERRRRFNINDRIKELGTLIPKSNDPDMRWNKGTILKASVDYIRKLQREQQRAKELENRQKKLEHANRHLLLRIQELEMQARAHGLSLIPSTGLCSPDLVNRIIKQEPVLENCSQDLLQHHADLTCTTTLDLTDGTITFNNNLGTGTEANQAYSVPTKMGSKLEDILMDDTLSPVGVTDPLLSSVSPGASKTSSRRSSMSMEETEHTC
# [7] = loss of viability in HepG2 cells – cell-based, CellTiter-Glo, cherry-picked, cytotoxicity control for Shn3 inhibitor project, dose response (AID 624134); format: functional
# [8] = non-specific 3'UTR reporter inhibition in Clone20-Shn3RL – cell-based, Renilla luciferase, cherry-picked, counter-screen for Shn3 inhibitor project, dose response (AID 624133); format: functional
# [9] = system: HeLa; experiment: ATP-based viability loss in HeLa cells – cell-based, CellTiter-Glo luminescence, cherry-pick samples, cytotoxicity control for MITF activator project, dose response (AID 540259); format: functional; settings: Homo sapiens
# [10] = target: T3, Streptokinase A (Streptococcus pyogenes serotype M1, UniProt P10520); experiment: viability-normalized secreted streptokinase activity reduction – plasminogen activation absorbance, OD405, dose response (AID 1914); format: functional, Streptococcus pyogenes M1 GAS;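 further: secreted streptokinase activity via plasminogen activation per viability signal from cell pellet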
# T3 sequence (P10520 whole entry): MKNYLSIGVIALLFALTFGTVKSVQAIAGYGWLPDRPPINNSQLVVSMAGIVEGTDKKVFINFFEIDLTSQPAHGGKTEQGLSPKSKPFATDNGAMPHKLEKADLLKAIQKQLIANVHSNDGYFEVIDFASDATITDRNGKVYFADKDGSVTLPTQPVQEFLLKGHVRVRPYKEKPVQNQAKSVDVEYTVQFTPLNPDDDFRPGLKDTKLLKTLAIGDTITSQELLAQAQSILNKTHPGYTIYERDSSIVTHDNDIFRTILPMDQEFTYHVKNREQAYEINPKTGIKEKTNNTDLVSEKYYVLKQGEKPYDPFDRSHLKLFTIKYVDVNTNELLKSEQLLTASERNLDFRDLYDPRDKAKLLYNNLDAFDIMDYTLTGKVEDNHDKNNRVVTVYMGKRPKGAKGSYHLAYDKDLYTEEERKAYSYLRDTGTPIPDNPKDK
# [11] = system: Streptococcus; experiment: GAS UMAA2166 growth inhibition – luminescence, BacTiterGlo, counter-screen for streptokinase expression inhibitor project, dose response (AID 1915); format: functional, organism-based;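 further: potency for reduction of bacterial viability or growth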
# [12] = system: Streptococcus sp. 'group A'; experiment: Streptococcus pyogenes SK(-)GAS viability under kanamycin – luminescence, BacTiterGlo, confirmation, counter-screen for streptokinase expression inhibitor project, dose response (AID 1900); format: functional, organism-based
# [13] = system: Vero; experiment: cells; format: functional, cell-based; settings: Chlorocebus sabaeus
# [14] = system: Vero; experiment: cells; format: functional; settings: Chlorocebus sabaeus
# [15] = system: A-375; experiment: proliferation inhibition in MITF-low A375 cells – cell-based, cherry-pick samples, set 2, counter-screen for MITF modulator project, dose response (AID 540335); format: functional; settings: Homo sapiens
# [16] = target: T4, Long-chain-fatty-acid--AMP ligase FadD28 (Mycobacterium tuberculosis, UniProt P9WQ59); experiment: Fluorescence polarization aasay to screen for inhibitors that compete for the binding of FadD28 to a bisubstrate Measured in Biochemical System Using Plate Reader - 2147-01_Inhibitor_Dose_CherryPick_Activity.; format: functional, Mycobacterium tuberculosis H37Rv
# T4 sequence (P9WQ59 whole entry): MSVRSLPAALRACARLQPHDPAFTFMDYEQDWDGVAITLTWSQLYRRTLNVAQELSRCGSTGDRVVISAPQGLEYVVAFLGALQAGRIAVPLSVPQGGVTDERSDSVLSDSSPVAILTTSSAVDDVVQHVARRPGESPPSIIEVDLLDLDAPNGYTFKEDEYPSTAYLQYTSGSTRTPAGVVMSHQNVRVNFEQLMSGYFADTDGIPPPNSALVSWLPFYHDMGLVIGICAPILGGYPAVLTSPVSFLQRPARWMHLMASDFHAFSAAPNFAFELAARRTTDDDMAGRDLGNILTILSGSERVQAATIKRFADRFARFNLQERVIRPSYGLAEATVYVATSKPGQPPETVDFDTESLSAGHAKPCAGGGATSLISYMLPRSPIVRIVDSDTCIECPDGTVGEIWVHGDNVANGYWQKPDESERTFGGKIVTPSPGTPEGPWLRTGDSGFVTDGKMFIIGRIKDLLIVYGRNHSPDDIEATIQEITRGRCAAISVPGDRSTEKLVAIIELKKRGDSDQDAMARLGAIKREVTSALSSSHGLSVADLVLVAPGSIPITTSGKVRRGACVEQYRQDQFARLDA
structure (smiles),measurement,setting,value
O=C(/C=C/c1cccc([N+](=O)[O-])c1)n1cnc2ccccc21,AC50,[1],28.2 µM (active)
same,IC50,[2],> 80 µM (inactive)
same,EC50,[3],1.62 µM (inconclusive)
same,AC50,[4],0.594 µM (active)
same,EC50,[5],1.68 µM (active)
same,AC50,[6],4.39 µM (active)
same,AC50,[7],> 70 µM (inactive)
same,AC50,[8],14.7 µM (active)
O=C(NCCc1ccccc1)c1nccc2ccccc12,AC50,[9],68.6 µM (active)
Cc1nc(N)sc1N=Nc1ccc(F)cc1,EC50,[10],> 150 µM (not active)
same,EC50,[11],> 150 µM (not active)
same,AC50,[9],79.5 µM (active)
same,EC50,[12],5.74 µM (active)
COc1ccc(C)c2sc(N(CCCN(C)C)C(=O)c3ccc4c(c3)OCCO4)nc12,IC50,[13],24.2 µM (active)
ClCCn1cnc2c(SCc3ccccc3)ncnc21,IC50,[13],2.03 µM (active)
same,CC50,[14],> 25 µM (active)
O=C(O)c1cc(N/N=C/C(Cl)=C/c2ccccc2)ccc1Cl,AC50,[1],> 11 µM (active)
same,AC50,[15],> 11 µM (active)
same,AC50,[16],13.6 µM (active)
same,AC50,[6],10.4 µM (active)
